Measured values as given in patent US20170157212A1, “CDK MODULATORS AND METHODS FOR THE TREATMENT OF CANCER” (Salk Institute for Biological Studies, priority 2015, published 2017).
Entries after “also recorded” stand apart in the source; their conditions may differ.

What was measured:
[1] = biological target: T1, mTORC1/Raptor kinase complex (Homo sapiens, UniProt P42345); experiment: In vitro kinase assay: mTORC1 phosphorylation of recombinant 4E-BP1 (T37/46); assay type: biochemical; details: same reactions with CDK12 and mTORC1/Raptor
T1 construct: made in house
Description: To enable priming of 4E-BP1 by mTORC1, these reactions contained both affinity-purified CDK12 and the mTORC1/Raptor kinase complexes. […] Consistent with a gain-of-function for CDK12 kinase activity in CRIF1 knockdown cells, enhanced binding of eIF4G to target mRNAs was observed (FIG. 6H, upper panel) that were identified previously by RIP-seq, with no effects on total mRNA levels (FIG. 6H, bottom panel).

CDK2 = biological target: T2, CDK2 (Homo sapiens, UniProt P24941); experiment: Co-immunoprecipitation of CRIF1 with CDK2; assay type: binding
T2 construct: endogenous in cells
Description: (§1) FIGS. 5A-5I. The Mitochondrial OX-PHOS Regulator, CRIF1, is a Novel Subunit of the Human CDK12 Kinase Complex. (A) Identification of CRIF1 as a near-stoichiometric subunit of the native CDK12 kinase complex. MudPIT analysis of CDK12 complexes from HEK293 cells that stably express HA-tagged full-length human CDK12. The HA-CDK12 complex was affinity-purified using anti-HA antibody and visualized by SDS-PAGE and silver-stain. (B) List of the identified proteins in the HA-CDK12 complex from (A). (C) Endogenous CRIF1 co-immunoprecipitates with native CDK12 in U2OS cell extracts. Shown is an immunoblot analysis of CRIF1, CCNK, and the chaperone proteins CDC37 and HSP90 in an anti-CDK12 immunoprecipitate. (D) CRIF1 is a specific subunit of the CDK12 complex. Native CRIF1 was immunoprecipitated from U2OS cells using an anti-CRIF1 antibody and analyzed by co-immunoprecipitation for association with various CDKs, as indicated. […] FLAG-CRIF1 proteins containing different C-terminal truncations were co-expressed with HA-CDK12 (aa 985-1490) and analyzed for binding by co-immunoprecipitation and immunoblot. […] Cell viability was analyzed after 72 hr. […] Expression of the mitochondrial MTCO-1 (COX1) protein was assessed using two different antisera. […] Each fraction (T; total, C:cytosolic, M:membrane/organelle, and N:nuclear) was analyzed by immunoblot using the indicated antibodies. […]

CDK8 = biological target: T3, CDK8 (Homo sapiens, UniProt P49336); experiment: Co-immunoprecipitation of CRIF1 with CDK8; assay type: binding
T3 construct: endogenous in cells
Description: as §1

T3 sequence (P49336 whole entry): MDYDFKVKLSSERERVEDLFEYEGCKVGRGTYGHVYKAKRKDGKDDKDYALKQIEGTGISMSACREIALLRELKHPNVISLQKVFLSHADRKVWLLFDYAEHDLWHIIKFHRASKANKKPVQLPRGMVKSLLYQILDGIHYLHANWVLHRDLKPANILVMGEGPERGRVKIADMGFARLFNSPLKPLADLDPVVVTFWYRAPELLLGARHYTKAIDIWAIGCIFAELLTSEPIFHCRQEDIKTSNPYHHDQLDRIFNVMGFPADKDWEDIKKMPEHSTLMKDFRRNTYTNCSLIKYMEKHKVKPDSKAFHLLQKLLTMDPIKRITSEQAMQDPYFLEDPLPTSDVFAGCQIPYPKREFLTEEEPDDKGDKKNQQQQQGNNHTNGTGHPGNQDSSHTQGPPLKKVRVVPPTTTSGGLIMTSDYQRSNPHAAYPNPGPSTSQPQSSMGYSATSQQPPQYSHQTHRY

phosphorylation of the T37/46 sites of 4E-BP1 by mTORC1 [1]: without affecting
Substance: Growth Arrest and DNA Damage-Inducible Proteins-Interacting Protein 1 [CRIF1]
presence in / binding to CDK2 complexes (CDK2): not present; also recorded: nor was binding to Cdk2 detected
presence in / binding to CDK8 complexes (CDK8): not present; also recorded: does not bind
